Where “and” joins values, the source holds several entries; their conditions need not be identical. Equal entries are not always repeated.
Test system: NCI-H1341 complex spheroids, percent test/control
Experiment: Anticancer human tumor NCI-H1341 cell line growth inhibition [AhR];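 note: spheroids exposed to agents for seven days before readout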
Conditions: for viability, T/C: stronger effect = lower value
Procedure, shortened: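 Complex tumor spheroids co-cultured with HUVEC and human MSC stroma; AhR antagonists tested in combination with standard-of-care and investigational agents. Top concentration at or near clinical Cmax (else 10 microM), half-log dilutions; growth expressed as percent test/control.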

[1] = curve of first compound, second compound 0.1 µM
[2] = curve of first compound, second compound 0.316 µM
[3] = curve of first compound, second compound 1 µM
[4] = curve of first compound, second compound 3.16 µM
[5] = curve of first compound, second compound 10 µM

For `COc1cccc2c1C(=O)c1c(O)c3c(c(O)c1C2=O)CC(O)(C(=O)CO)CC3OC1CC(N)C(O)C(C)O1` (stereo not given), the viability, T/C (compound 0.0316 µM) was 49.4% and 58.5% and 51.1%, the viability, T/C (compound 0.1 µM) was 48.7% and 55.5% and 55.7% and the viability, T/C (compound 0.316 µM) was 35.4% and 44.5% and 30.1%. The viability, T/C (compound 1 µM) was 13.8% and 18.2% and 6.98%, the viability, T/C (compound 3.16 µM) was 0.92% and 1.68% and 0.74% and the viability, T/C (compound 10 µM) was 4.71% and 5.46% and 2.82%. For the same compound, the IC50 (curve of compound) was < 31.6 nM and 186 nM and 114 nM.

`CCc1c2c(nc3ccc(O)cc13)-c1cc3c(c(=O)n1C2)COC(=O)[C@]3(O)CC` + Cc1cncc(-c2nc(NCCc3c[nH]c4ccccc34)c3ncn(C(C)C)c3n2)c1 was tested, and the IC50 [1] was 7.13 nM, the IC50 [2] was 3.57 nM and the IC50 [3] was < 0.949 nM. For the same compound, the IC50 [4] was < 0.949 nM, the IC50 [5] was < 0.949 nM and the viability, T/C (second compound 0.1 µM, first compound 0.000949 µM) was 69.6%. It also gave a viability, T/C (second compound 0.1 µM, first compound 0.003 µM) of 65.8%, a viability, T/C (second compound 0.1 µM, first compound 0.00949 µM) of 41.9% and a viability, T/C (second compound 0.1 µM, first compound 0.03 µM) of 31.9%. For the same compound, the viability, T/C (second compound 0.1 µM, first compound 0.0949 µM) was 25.2%, the viability, T/C (second compound 0.1 µM, first compound 0.3 µM) was 11.9% and the viability, T/C (second compound 0.316 µM, first compound 0.000949 µM) was 63.2%. It also gave a viability, T/C (second compound 0.316 µM, first compound 0.003 µM) of 55.8%, a viability, T/C (second compound 0.316 µM, first compound 0.00949 µM) of 33.8% and a viability, T/C (second compound 0.316 µM, first compound 0.03 µM) of 31.8%. For the same compound, the viability, T/C (second compound 0.316 µM, first compound 0.0949 µM) was 22.9%, the viability, T/C (second compound 0.316 µM, first compound 0.3 µM) was 10% and the viability, T/C (second compound 1 µM, first compound 0.000949 µM) was 46.1%. It also gave a viability, T/C (second compound 1 µM, first compound 0.003 µM) of 45.6%, a viability, T/C (second compound 1 µM, first compound 0.00949 µM) of 36.4% and a viability, T/C (second compound 1 µM, first compound 0.03 µM) of 31.7%. For the same compound, the viability, T/C (second compound 1 µM, first compound 0.0949 µM) was 20.4%, the viability, T/C (second compound 1 µM, first compound 0.3 µM) was 8.02% and the viability, T/C (second compound 3.16 µM, first compound 0.000949 µM) was 46%. It also gave a viability, T/C (second compound 3.16 µM, first compound 0.003 µM) of 38.2%, a viability, T/C (second compound 3.16 µM, first compound 0.00949 µM) of 34.6% and a viability, T/C (second compound 3.16 µM, first compound 0.03 µM) of 26.3%. The viability, T/C (second compound 3.16 µM, first compound 0.0949 µM) was 15.2%, the viability, T/C (second compound 3.16 µM, first compound 0.3 µM) was 5.83% and the viability, T/C (second compound 10 µM, first compound 0.000949 µM) was 15.2%. It also gave a viability, T/C (second compound 10 µM, first compound 0.003 µM) of 13%, a viability, T/C (second compound 10 µM, first compound 0.00949 µM) of 14.9% and a viability, T/C (second compound 10 µM, first compound 0.03 µM) of 8.23%. For the same compound, the viability, T/C (second compound 10 µM, first compound 0.0949 µM) was 4.28% and the viability, T/C (second compound 10 µM, first compound 0.3 µM) was 1.78%.

`CC(C)c1c(-c2ccccc2)nc2c(C#N)c[nH]n2c1=O` + CC(CO)NC(=O)c1cc(-c2ccc(Cl)cc2)nn(-c2cnn(C)c2)c1=O was tested, and the IC50 [1] was > 10000 nM, the IC50 [2] was > 10000 nM and the IC50 [3] was > 10000 nM. For the same compound, the IC50 [4] was > 10000 nM, the IC50 [5] was > 10000 nM and the viability, T/C (second compound 0.1 µM, first compound 0.0316 µM) was 85.4%. The viability, T/C (second compound 0.1 µM, first compound 0.1 µM) was 89.8%, the viability, T/C (second compound 0.1 µM, first compound 0.316 µM) was 78.7% and the viability, T/C (second compound 0.1 µM, first compound 1 µM) was 82.6%. The viability, T/C (second compound 0.1 µM, first compound 3.16 µM) was 101%, the viability, T/C (second compound 0.1 µM, first compound 10 µM) was 88.4% and the viability, T/C (second compound 0.316 µM, first compound 0.0316 µM) was 86.8%. It also gave a viability, T/C (second compound 0.316 µM, first compound 0.1 µM) of 95.6%, a viability, T/C (second compound 0.316 µM, first compound 0.316 µM) of 93% and a viability, T/C (second compound 0.316 µM, first compound 1 µM) of 100%. The viability, T/C (second compound 0.316 µM, first compound 3.16 µM) was 86.5%, the viability, T/C (second compound 0.316 µM, first compound 10 µM) was 73% and the viability, T/C (second compound 1 µM, first compound 0.0316 µM) was 96.1%. For the same compound, the viability, T/C (second compound 1 µM, first compound 0.1 µM) was 91.2%, the viability, T/C (second compound 1 µM, first compound 0.316 µM) was 95.6% and the viability, T/C (second compound 1 µM, first compound 1 µM) was 94.5%. For the same compound, the viability, T/C (second compound 1 µM, first compound 3.16 µM) was 76.2%, the viability, T/C (second compound 1 µM, first compound 10 µM) was 69.5% and the viability, T/C (second compound 3.16 µM, first compound 0.0316 µM) was 84.5%. It also gave a viability, T/C (second compound 3.16 µM, first compound 0.1 µM) of 99.2%, a viability, T/C (second compound 3.16 µM, first compound 0.316 µM) of 106% and a viability, T/C (second compound 3.16 µM, first compound 1 µM) of 81.8%. The viability, T/C (second compound 3.16 µM, first compound 3.16 µM) was 64.5%, the viability, T/C (second compound 3.16 µM, first compound 10 µM) was 79.1% and the viability, T/C (second compound 10 µM, first compound 0.0316 µM) was 86.2%. For the same compound, the viability, T/C (second compound 10 µM, first compound 0.1 µM) was 74.4%, the viability, T/C (second compound 10 µM, first compound 0.316 µM) was 74.2% and the viability, T/C (second compound 10 µM, first compound 1 µM) was 71.6%. For the same compound, the viability, T/C (second compound 10 µM, first compound 3.16 µM) was 70.9% and the viability, T/C (second compound 10 µM, first compound 10 µM) was 59.8%.

With `CC1COCCN1c1cc(-c2ccnn2C)c2ccnc(-c3ccn[nH]3)c2n1` (stereo not given) the viability, T/C (compound 0.00316 µM) was 107% and 90.1% and 110%, the viability, T/C (compound 0.01 µM) was 115% and 99.5% and 98.4% and the viability, T/C (compound 0.0316 µM) was 60.1% and 77.4% and 53.4%. The viability, T/C (compound 0.1 µM) was 28.1% and 43% and 29.3%, the viability, T/C (compound 0.316 µM) was 23.1% and 38.5% and 23.2% and the viability, T/C (compound 1 µM) was 16.5% and 27.6% and 19.2%. For the same compound, the IC50 (curve of compound) was 43.2 nM and 79.6 nM and 38.3 nM.

In the case of `COc1cc(C2c3cc4c(cc3C(OC3OC5COC(C)OC5C(O)C3O)C3COC(=O)C23)OCO4)cc(OC)c1O` (stereo not given), the viability, T/C (compound 0.0316 µM) is reported as 98.7% and 93.7% and 88.8%, the viability, T/C (compound 0.1 µM) is reported as 86.3% and 90.8% and 80.8% and the viability, T/C (compound 0.316 µM) is reported as 75.5% and 77.2% and 57%. The viability, T/C (compound 1 µM) was 44.2% and 51.9% and 53.8%, the viability, T/C (compound 3.16 µM) was 35.1% and 45.4% and 52.8% and the viability, T/C (compound 10 µM) was 35.9% and 30.7% and 53.1%.
